Source: US12552783B2, “Modulators of proteolysis and associated methods of use” (Arvinas Operations, Inc., priority 2018, dated 2026)

Biological target: KRas (Homo sapiens, UniProt P01116, G12C)
Test: KRas degradation in SW1573 cells by Western blot, normalized to GAPDH (data of Table 14)
Type: cell-based
Details: SW1573 cells
Procedure: Cell Lines, Antibodies, and Reagents. NCI-H2030 (CRL-5914) and SW1573 (CRL-2170) cells were purchased from ATCC. Both cell lines are homozygous for the G12C mutation in KRas. NCI-H2030 cells were cultured in RPMI-1640 medium containing 1% penicillin-streptomycin and 10% fetal bovine serum (FBS). SW1573 cells were cultured in DMEM containing 1% penicillin-streptomycin and 10% FBS. The KRas detection antibody (Cat. No. LS-C175665) was purchased from LifeSpan Biosciences and was used at a dilution of 1:2000. GAPDH was detected using an antibody purchased from Cell Signaling Technology (Cat. No. 5174) and was diluted 1:3000. Secondary anti-mouse and anti-rabbit detection antibodies were purchased from Cell Signaling Technology (Cat. Nos. 7076 and 7074, respectively).
Compound Treatment and Western Blotting of the Data of Table 14. Either NCI-H2030 or SW1573 cells were plated in 12-well plates and allowed to adhere overnight at 37° C. in an incubator containing 5% CO2. The following day, the medium was replaced with the appropriate medium lacking FBS to induce starvation. Cells were returned to the incubator for an additional 24 hours following media exchange. […] Cells were treated with VHL-based compounds for 24 hours and all other compounds for 72 hours. Following treatment, cells were lysed in RIPA buffer (Thermo Fisher Cat. No. 89900) containing phosphatase (Thermo Fisher Cat. No. 1861277) and protease (Thermo Fisher Cat. No. 78429) inhibitor cocktails. Lysates were cleared at 13,000 rpm for 15 minutes and supernatants were assayed for total protein concentration using the Pierce BCA assay system (Thermo Fisher Cat. No. 23225). For each sample, 10 μg total protein was resolved on a 12% Bis-Tris gel and then transferred to a nitrocellulose membrane. After blocking in 3% BSA in TBST (Tris-buffered Saline with 0.1% Tween-20) for 1 hour at room temperature, membranes were probed with the primary antibody (LS Bio Cat. No. LS-C175665) overnight at 4° C. After incubation with the secondary antibody, the following day membranes were visualized using the SuperSignal™ West Femto substrate (Thermo Fisher Cat. No. 34095). The KRas signal in each lane was normalized to GAPDH and percent degradation was either estimated as less than 25% by visual inspection (C in Table 13) or quantitated relative to the DMSO control lane using BIO-RAD Image Lab 5.2.1, and all data was plotted using GraphPad PRISM 6.07.
DC50 is the half-maximal degradation concentration—i.e., the concentration at which 50% degradation is observed. DMax is the maximum degradation efficacy is achieved—i.e., the maximal degradation observed) degradation data.

Percent Degradation at Indicated Concentration (μM) (0.1 μM)	Percent Degradation at Indicated Concentration (μM) (0.3 μM)	Percent Degradation at Indicated Concentration (μM) (1 μM)	Compound
C (Percent Degradation: C ≤ 35)	C (Percent Degradation: C ≤ 35)	C (Percent Degradation: C ≤ 35)	C=CC(=O)N1CCN(c2nc(O[C@H](C)CN3CCC(OCCOCCOCCOc4ccc5c(c4)C(=O)N(C4CCC(=O)NC4=O)C5=O)CC3)nc3c(F)c(-c4cc(O)cc5ccccc45)c(Cl)cc23)CC1 (stereo partly drawn) [compound 428, 5-(2-(2-(2-((1-((2R)-2-((4-(4-acryloylpiperazin-1-yl)-6-chloro-8-fluoro-7-(3-hydroxynaphthalen-1-yl)quinazolin-2-yl)oxy)propyl)piperidin-4-yl)oxy)ethoxy)ethoxy)ethoxy)-2-(2,6-dioxopiperidin-3-yl)isoindoline-1,3-dione]
C (Percent Degradation: C ≤ 35)	C (Percent Degradation: C ≤ 35)	C (Percent Degradation: C ≤ 35)	C=CC(=O)N1CCN(c2nc(O[C@H](C)CN3CCC(OCCOCCOCCOCCOc4ccc5c(c4)C(=O)N(C4CCC(=O)NC4=O)C5=O)CC3)nc3c(F)c(-c4cc(O)cc5ccccc45)c(Cl)cc23)CC1 (stereo partly drawn) [compound 429]
C (Percent Degradation: C ≤ 35)	C (Percent Degradation: C ≤ 35)	C (Percent Degradation: C ≤ 35)	C=CC(=O)N1CCN(c2nc(O[C@H](C)CN3CCC(OCCOCCOCCOCCOCCOc4ccc5c(c4)C(=O)N(C4CCC(=O)NC4=O)C5=O)CC3)nc3c(F)c(-c4cc(O)cc5ccccc45)c(Cl)cc23)CC1 (stereo partly drawn) [compound 430, 5-((14-((1-((2R)-2-((4-(4-acryloylpiperazin-1-yl)-6-chloro-8-fluoro-7-(3-hydroxynaphthalen-1-yl)quinazolin-2-yl)oxy)propyl)piperidin-4-yl)oxy)-3,6,9,12-tetraoxatetradecyl)oxy)-2-(2,6-dioxopiperidin-3-yl)isoindoline-1,3-dione]
C (Percent Degradation: C ≤ 35)	C (Percent Degradation: C ≤ 35)	C (Percent Degradation: C ≤ 35)	C=CC(=O)N1CCN(c2nc(O[C@H](C)CN3CCC(CN4CCN(c5ccc6c(c5)C(=O)N(C5CCC(=O)NC5=O)C6=O)CC4)CC3)nc3c(F)c(-c4cc(O)cc5ccccc45)c(Cl)cc23)CC1 (stereo partly drawn) [compound 431, 5-(4-((1-((2R)-2-((4-(4-acryloylpiperazin-1-yl)-6-chloro-8-fluoro-7-(3-hydroxynaphthalen-1-yl)quinazolin-2-yl)oxy)propyl)piperidin-4-yl)methyl)piperazin-1-yl)-2-(2,6-dioxopiperidin-3-yl)isoindoline-1,3-dione]
C (Percent Degradation: C ≤ 35)	B (35 < B < 70)	B (35 < B < 70)	C=CC(=O)N1CCN(c2nc(O[C@H](C)CN3CCC(OCCOc4cc(-c5scnc5C)ccc4CNC(=O)[C@@H]4C[C@@H](O)CN4C(=O)[C@@H](c4cc(C)no4)C(C)C)CC3)nc3c2CCN(c2cc(O)cc4ccccc24)C3)CC1 [compound 436, (2S,4R)-N-(2-(2-((1-((R)-2-((4-(4-acryloylpiperazin-1-yl)-7-(3-hydroxynaphthalen-1-yl)-5,6,7,8-tetrahydropyrido[3,4-d]pyrimidin-2-yl)oxy)propyl)piperidin-4-yl)oxy)ethoxy)-4-(4-methylthiazol-5-yl)benzyl)-4-hydroxy-1-((R)-3-methyl-2-(3-methylisoxazol-5-yl)butanoyl)pyrrolidine-2-carboxamide]
C (Percent Degradation: C ≤ 35)	C (Percent Degradation: C ≤ 35)	C (Percent Degradation: C ≤ 35)	C=CC(=O)N1CCN(c2nc(O[C@H](C)CN3CCC(OCCOc4cc(-c5scnc5C)ccc4CNC(=O)[C@@H]4C[C@@H](O)CN4C(=O)[C@H](c4cc(C)no4)C(C)C)CC3)nc3c2CCN(c2cc(O)cc4ccccc24)C3)CC1 [compound 437, (2S,4R)-N-(2-(2-((14(R)-2-((4-(4-acryloylpiperazin-1-yl)-7-(3-hydroxynaphthalen-1-yl)-5,6,7,8-tetrahydropyrido[3,4-d1pyrimidin-2-yl)oxy)propyl)piperidin-4-yl)oxy)ethoxy)-4-(4-methylthiazo1-5-yl)benzyl)-4-hydroxy-1-((S)-3-methyl-2-(3-methylisoxazol-5-yl)butanoyl)pyrrolidine-2-carboxamide]
B (35 < B < 70)	C (Percent Degradation: C ≤ 35)	B (35 < B < 70)	C=CC(=O)N1CCN(c2nc(O[C@H](C)CN3CCC(OCCOCCOc4cc(-c5scnc5C)ccc4CNC(=O)[C@@H]4C[C@@H](O)CN4C(=O)[C@@H](c4cc(C)no4)C(C)C)CC3)nc3c2CCN(c2cc(O)cc4ccccc24)C3)CC1 [compound 438]
C (Percent Degradation: C ≤ 35)	C (Percent Degradation: C ≤ 35)	C (Percent Degradation: C ≤ 35)	C=CC(=O)N1CCN(c2nc(O[C@H](C)CN3CCC(OCCOCCOc4cc(-c5scnc5C)ccc4CNC(=O)[C@@H]4C[C@@H](O)CN4C(=O)[C@H](c4cc(C)no4)C(C)C)CC3)nc3c2CCN(c2cc(O)cc4ccccc24)C3)CC1 [compound 439, (2S,4R)-N-(2-(2-(2-((1-((R)-2-((4-(4-acryloylpiperazin-1-yl)-7-(3-hydroxynaphthalen-1-yl)-5,6,7,8-tetrahydropyrido[3,4-d]pyrimidin-2-yl)oxy)propyl)piperidin-4-yl)oxy)ethoxy)ethoxy)-4-(4-methylthiazol-5-yl)benzyl)-4-hydroxy-1-((S)-3-methyl-2-(3-methylisoxazol-5-yl)butanoyl)pyrrolidine-2-carboxamide]
C (Percent Degradation: C ≤ 35)	C (Percent Degradation: C ≤ 35)	C (Percent Degradation: C ≤ 35)	C=CC(=O)N1CCN(c2nc(O[C@H](C)CN3CCC(OCCOCCOCCOc4cc(-c5scnc5C)ccc4CNC(=O)[C@@H]4C[C@@H](O)CN4C(=O)[C@@H](c4cc(C)no4)C(C)C)CC3)nc3c2CCN(c2cc(O)cc4ccccc24)C3)CC1 [compound 440, (2S,4R)-N-(2-(2-(2-(2-((1-((R)-2-((4-(4-acryloylpiperazin-1-yl)-7-(3-hydroxynaphthalen-1-yl)-5,6,7,8-tetrahydropyrido[3,4-d]pyrimidin-2-yl)oxy)propyl)piperidin-4-yl)oxy)ethoxy)ethoxy)ethoxy)-4-(4-methylthiazol-5-yl)benzyl)-4-hydroxy-1-((R)-3-methyl-2-(3-methylisoxazol-5-yl)butanoyl)pyrrolidine-2-carboxamide]
C (Percent Degradation: C ≤ 35)	C (Percent Degradation: C ≤ 35)	C (Percent Degradation: C ≤ 35)	C=CC(=O)N1CCN(c2nc(O[C@H](C)CN3CCC(OCCOCCOCCOc4cc(-c5scnc5C)ccc4CNC(=O)[C@@H]4C[C@@H](O)CN4C(=O)[C@H](c4cc(C)no4)C(C)C)CC3)nc3c2CCN(c2cc(O)cc4ccccc24)C3)CC1 [compound 441, (2S,4R)-N-(2-(2-(2-(2-((1-((R)-2-((4-(4-acryloylpiperazin-1-yl)-7-(3-hydroxynaphthalen-1-yl)-5,6,7,8-tetrahydropyrido[3,4-d]pyrimidin-2-yl)oxy)propyl)piperidin-4-yl)oxy)ethoxy)ethoxy)ethoxy)-4-(4-methylthiazol-5-yl)benzyl)-4-hydroxy-1-((S)-3-methyl-2-(3-methylisoxazol-5-yl)butanoyl)pyrrolidine-2-carboxamide]
C (Percent Degradation: C ≤ 35)	C (Percent Degradation: C ≤ 35)	C (Percent Degradation: C ≤ 35)	C=CC(=O)N1CCN(c2nc(O[C@H](C)CN3CCC(OCCOCCOCCOCCOc4cc(-c5scnc5C)ccc4CNC(=O)[C@@H]4C[C@@H](O)CN4C(=O)[C@@H](c4cc(C)no4)C(C)C)CC3)nc3c2CCN(c2cc(O)cc4ccccc24)C3)CC1 [compound 442]
